The supplement of paper PMC10307832

Columns and labels:
Test in all cases: relative viability (nuclei count vs DMSO), 5 days (fraction); higher = more cells survive
A-427 = tested on: A-427
Summary of the method: (§1)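 Cells from lung cancer lines were seeded into 1536-well plates and, one day later, dosed by pin tool. Treatments were either a single drug or a fixed dose of an anchor drug with five library-drug doses (not always all listed) in √10 steps. After 5 days, nuclei were stained in a one-step fixation (final 0.05% Triton X-100, 1% formaldehyde, 1 ug/ml Hoechst) and counted on 4× images, and relative viability is the treated-to-vehicle nuclei ratio, as the median of duplicate plates.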

COR-L23 = tested on: COR-L23
Summary of the method: as §1

ChaGo-K-1 = tested on: ChaGo-K-1
Summary of the method: as §1

EKVX = tested on: EKVX
Summary of the method: as §1

EPLC-272H = tested on: EPLC-272H
Summary of the method: as §1

HCC-366 = tested on: HCC-366
Summary of the method: as §1

HCC-44 = tested on: HCC-44
Summary of the method: as §1

HCC-78 = tested on: HCC-78
Summary of the method: as §1

HOP-62 = tested on: HOP-62
Summary of the method: as §1

LOU-NH91 = tested on: LOU-NH91
Summary of the method: as §1

NCI-H1395 = tested on: NCI-H1395
Summary of the method: as §1

NCI-H1650 = tested on: NCI-H1650
Summary of the method: as §1

NCI-H1734 = tested on: NCI-H1734
Summary of the method: as §1

NCI-H1915 = tested on: NCI-H1915
Summary of the method: as §1

NCI-H2023 = tested on: NCI-H2023
Summary of the method: as §1

NCI-H2087 = tested on: NCI-H2087
Summary of the method: as §1

NCI-H3122 = tested on: NCI-H3122
Summary of the method: as §1

NCI-H358 = tested on: NCI-H358
Summary of the method: as §1

NCI-H596 = tested on: NCI-H596
Summary of the method: as §1

NCI-H650 = tested on: NCI-H650
Summary of the method: as §1

NCI-H661 = tested on: NCI-H661
Summary of the method: as §1

NCI-H838 = tested on: NCI-H838
Summary of the method: as §1

SK-MES-1 = tested on: SK-MES-1
Summary of the method: as §1

Cc1cnc(-c2cnc(NCCNc3ccc(C#N)cn3)nc2-c2ccc(Cl)cc2Cl)[nH]1 + CS(=O)(=O)N1CCN(Cc2cc3nc(-c4cccc5[nH]ncc45)nc(N4CCOCC4)c3s2)CC1 [Pictilisib] (partner 1 µM)
relative viability (A-427; first compound 0.08 µM): 0.758
relative viability (A-427; first compound 0.253 µM): 0.705
relative viability (A-427; first compound 0.8 µM): 0.696
relative viability (A-427; first compound 2.53 µM): 0.619
relative viability (COR-L23; first compound 0.08 µM): 0.901
relative viability (COR-L23; first compound 0.253 µM): 0.683
relative viability (COR-L23; first compound 0.8 µM): 0.944
relative viability (COR-L23; first compound 2.53 µM): 0.755
relative viability (ChaGo-K-1; first compound 0.08 µM): 0.612
relative viability (ChaGo-K-1; first compound 0.253 µM): 0.828
relative viability (ChaGo-K-1; first compound 0.8 µM): 0.375
relative viability (ChaGo-K-1; first compound 2.53 µM): 0.623
relative viability (EKVX; first compound 0.08 µM): 0.462
relative viability (EKVX; first compound 0.253 µM): 0.394
relative viability (EKVX; first compound 0.8 µM): 0.374
relative viability (EKVX; first compound 2.53 µM): 0.392
relative viability (EPLC-272H; first compound 0.08 µM): 0.337
relative viability (EPLC-272H; first compound 0.253 µM): 0.325
relative viability (EPLC-272H; first compound 0.8 µM): 0.316
relative viability (EPLC-272H; first compound 2.53 µM): 0.358
relative viability (HCC-366; first compound 0.08 µM): 0.148
relative viability (HCC-366; first compound 0.253 µM): 0.128
relative viability (HCC-366; first compound 0.8 µM): 0.119
relative viability (HCC-366; first compound 2.53 µM): 0.132
relative viability (HCC-44; first compound 0.08 µM): 0.706
relative viability (HCC-44; first compound 0.253 µM): 0.578
relative viability (HCC-44; first compound 0.8 µM): 0.715
relative viability (HCC-44; first compound 2.53 µM): 0.938
relative viability (HCC-78; first compound 0.08 µM): 0.198
relative viability (HCC-78; first compound 0.253 µM): 0.253
relative viability (HCC-78; first compound 0.8 µM): 0.233
relative viability (HCC-78; first compound 2.53 µM): 0.308
relative viability (HOP-62; first compound 0.08 µM): 0.777
relative viability (HOP-62; first compound 0.253 µM): 0.688
relative viability (HOP-62; first compound 0.8 µM): 0.725
relative viability (HOP-62; first compound 2.53 µM): 0.647
relative viability (LOU-NH91; first compound 0.08 µM): 0.532
relative viability (LOU-NH91; first compound 0.253 µM): 0.531
relative viability (LOU-NH91; first compound 0.8 µM): 0.504
relative viability (LOU-NH91; first compound 2.53 µM): 0.564
relative viability (NCI-H1395; first compound 0.08 µM): 0.759
relative viability (NCI-H1395; first compound 0.253 µM): 0.585
relative viability (NCI-H1395; first compound 0.8 µM): 0.601
relative viability (NCI-H1395; first compound 2.53 µM): 0.65
relative viability (NCI-H1650; first compound 0.08 µM): 0.682
relative viability (NCI-H1650; first compound 0.253 µM): 0.595
relative viability (NCI-H1650; first compound 0.8 µM): 0.518
relative viability (NCI-H1650; first compound 2.53 µM): 0.597
relative viability (NCI-H1734; first compound 0.08 µM): 0.548
relative viability (NCI-H1734; first compound 0.253 µM): 0.43
relative viability (NCI-H1734; first compound 0.8 µM): 0.432
relative viability (NCI-H1734; first compound 2.53 µM): 0.522
relative viability (NCI-H1915; first compound 0.08 µM): 0.958
relative viability (NCI-H1915; first compound 0.8 µM): 0.939
relative viability (NCI-H1915; first compound 2.53 µM): 1.01
relative viability (NCI-H2023; first compound 0.08 µM): 0.334
relative viability (NCI-H2023; first compound 0.253 µM): 0.271
relative viability (NCI-H2023; first compound 0.8 µM): 0.307
relative viability (NCI-H2023; first compound 2.53 µM): 0.813
relative viability (NCI-H2087; first compound 0.08 µM): 0.853
relative viability (NCI-H2087; first compound 0.253 µM): 0.754
relative viability (NCI-H2087; first compound 0.8 µM): 0.975
relative viability (NCI-H2087; first compound 2.53 µM): 1.06
relative viability (NCI-H3122; first compound 0.08 µM): 0.65
relative viability (NCI-H3122; first compound 0.253 µM): 0.64
relative viability (NCI-H3122; first compound 0.8 µM): 0.646
relative viability (NCI-H3122; first compound 2.53 µM): 0.763
relative viability (NCI-H358; first compound 0.08 µM): 0.301
relative viability (NCI-H358; first compound 0.8 µM): 0.389
relative viability (NCI-H358; first compound 2.53 µM): 0.264
relative viability (NCI-H596; first compound 0.08 µM): 0.424
relative viability (NCI-H596; first compound 0.253 µM): 0.397
relative viability (NCI-H596; first compound 0.8 µM): 0.391
relative viability (NCI-H596; first compound 2.53 µM): 0.435
relative viability (NCI-H650; first compound 0.08 µM): 0.936
relative viability (NCI-H650; first compound 0.253 µM): 1.03
relative viability (NCI-H650; first compound 0.8 µM): 0.916
relative viability (NCI-H650; first compound 2.53 µM): 0.873
relative viability (NCI-H661; first compound 0.08 µM): 0.476
relative viability (NCI-H661; first compound 0.253 µM): 0.395
relative viability (NCI-H661; first compound 0.8 µM): 0.476
relative viability (NCI-H661; first compound 2.53 µM): 0.393
relative viability (NCI-H838; first compound 0.08 µM): 0.525
relative viability (NCI-H838; first compound 0.253 µM): 0.552
relative viability (NCI-H838; first compound 0.8 µM): 0.737
relative viability (NCI-H838; first compound 2.53 µM): 1.19
relative viability (SK-MES-1; first compound 0.08 µM): 0.406
relative viability (SK-MES-1; first compound 0.253 µM): 0.378
relative viability (SK-MES-1; first compound 0.8 µM): 0.38
relative viability (SK-MES-1; first compound 2.53 µM): 0.403
